Experimental data from patent publication US10016343B2, “Solid stick antiperspirant compositions” (The Procter & Gamble Company, priority 2013, dated 2018).

Experiment: Hygroscopicity (equilibrium moisture pick up) of antiperspirant active
Type: physicochemical
Settings: 86% RH, 20° C., 5 days
Experimental: One way to evaluate the hygroscopic nature of an antiperspirant active is to determine the equilibrium moisture pick up of the active after 5 days in a controlled relative humidity environment. Specific humidity chambers can be created placing saturated salt solutions in desiccators at a specific temperature. Different salts are used to create different humidities, for example potassium chloride can be used to make an 86% relative humidity (RH) environment at 20° C. In general there is an increase in moisture pick up as humidity is increased for the antiperspirant actives shown, however there are clear differences in slope and amount of moisture pick up at high humidity. Materials with higher slope and larger increases at high humidity (i.e. 86% RH) are considered to be more hygroscopic. The aluminum zirconium trichlorohydrate active (metal to chloride ratio=1.6) from Inventive Example 1 is the least hygroscopic (28% moisture pick up at 86% RH) with the aluminum zirconium tetrachlorohydrate active (metal to chloride ratio=1.2) being substantially more hygroscopic (40% moisture pick up at 86% RH). […] This may explain the substantial difference observed in the amount of sweat measured between Inventive Examples 1 and 2. […]

Row | moisture pick up (hygroscopicity) [%] | Substance
1 | 40 | aluminum zirconium tetrachlorohydrate
2 | 28 | aluminum zirconium trichlorohydrate
